Earlier results in US20240368262A1, “A MYOSTATIN PATHWAY INHIBITOR IN COMBINATION WITH A GLP-1 PATHWAY ACTIVATOR FOR USE IN TREATING METABOLIC DISORDERS” (SCHOLAR ROCK, INC., priority 2021, published 2024).

Test system: GIP and GLP-1 receptor
Conditions: Rosenstock et al., Lancet; cited from earlier work

For Tirzepatide, the body weight is listed as “reduce body weight” and the glycemic control is listed as “improve glycemic control”.
